What is called DC50 is the concentration at which degradation of the target reaches its halfway point. Read a high DC50 as a less potent degrader.

This assay concerns the target T1, IRAK4 (Homo sapiens, UniProt Q9NWZ3).
T1 construct: 293Tcells expressing HiBiT-tagged IRAK4 were then added into 384-well plates
T1 sequence (Q9NWZ3 1-460): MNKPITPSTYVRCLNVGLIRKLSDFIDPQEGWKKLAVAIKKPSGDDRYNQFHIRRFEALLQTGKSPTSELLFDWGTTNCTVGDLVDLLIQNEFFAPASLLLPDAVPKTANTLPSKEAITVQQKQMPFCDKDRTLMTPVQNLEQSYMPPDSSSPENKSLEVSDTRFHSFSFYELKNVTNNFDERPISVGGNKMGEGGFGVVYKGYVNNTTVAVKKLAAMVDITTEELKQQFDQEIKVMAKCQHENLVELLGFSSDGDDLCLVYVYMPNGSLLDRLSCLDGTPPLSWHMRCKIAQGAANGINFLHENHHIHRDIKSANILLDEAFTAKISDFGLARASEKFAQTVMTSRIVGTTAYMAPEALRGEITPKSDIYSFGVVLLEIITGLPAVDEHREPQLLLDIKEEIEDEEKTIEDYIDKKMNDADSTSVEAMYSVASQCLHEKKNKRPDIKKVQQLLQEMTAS
In words: IRAK4 Degradation Assay, HiBiT Method. It counts as cell-based. To be noted: 293T cells expressing HiBiT-tagged IRAK4, 6 hours. The method, boiled down: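 293T cells with HiBiT knocked in at the C-terminus of endogenous IRAK4, 10,000 per well, treated 6 h at 37 °C with an 11-point half-log series ([…]), in duplicate. Remaining IRAK4 read by Nano-Glo HiBiT lytic luminescence against DMSO-only and media-only controls.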
For orientation: With HiBiT, luminescence reflects the tagged protein that the partner subunit can reach.
Regarding `CC(C)Oc1cc2nn([C@H]3CC[C@H](CN4CC[C@H](c5ccc(OC6CCC(=O)NC6=O)cc5)[C@@H](O)C4)CC3)cc2cc1C(=O)Nc1cccn([C@H]2C[C@H]2F)c1=O` (stereo partly shown) [Example 187], the half-maximal degradation concentration (DC50) was under 0.01 µM.

Consider `CC(C)Oc1cc2nn([C@H]3CC[C@H](CN4CCN(c5ccc6c(N7CCC(=O)NC7=O)cnn6c5)CC4)CC3)cc2cc1C(=O)Nc1cccn([C@H]2C[C@H]2F)c1=O` [Example 145, 2-((1r,4S)-4-((4-(3-(2,4-dioxotetrahydropyrimidin-1(2H)-yl)pyrazolo[1,5-a]pyridin-6-yl)piperazin-1-yl)methyl)cyclohexyl)-N-(1-((1S,2R)-2-fluorocyclopropyl)-2-oxo-1,2-dihydropyridin-3-yl)-6-isopropoxy-2H-indazole-5-carboxamide], for which the 50% degradation concentration (DC50) is under 0.01 µM. Molecule `CC(C)Oc1cc2nc([C@H]3CC[C@H](CN(C)C4CCN(c5ccc(NC6CCC(=O)NC6=O)cc5)CC4)CC3)cn2cc1C(=O)Nc1cccc(C(F)F)n1` (stereo partly shown) [Example 20, N-[6-(difluoromethyl)-2-pyridyl]-2-[4-[[[1-[4-[(2,6-dioxo-3-piperidyl)amino]phenyl]-4-piperidyl]-methyl-amino]methyl]cyclohexyl]-7-isopropoxy-imidazo[1,2-a]pyridine-6-carboxamide] showed a 50% degradation concentration (DC50) of 0.01 to 0.1 µM. Next, `CC(C)Oc1cc2nn(C3CCN(C(=O)CC4(O)CCN(c5ncc(C6CCC(=O)NC6=O)cc5F)CC4)CC3)cc2cc1C(=O)Nc1cccn([C@H]2C[C@H]2F)c1=O` (stereo partly drawn) [Example 152, 2-(1-(2-(1-(5-(2,6-dioxopiperidin-3-yl)-3-fluoropyridin-2-yl)-4-hydroxypiperidin-4-yl)acetyl)piperidin-4-yl)-N-(1-((S,2R)-2-fluorocyclopropyl)-2-oxo-1,2-dihydropyridin-3-yl)-6-isopropoxy-2H-indazole-5-carboxamide]: under 0.01 µM.

Molecule `CC(C)Oc1cc2nn(C3CCN(C(=O)N(C)C4CCN(c5ncc(C6CCC(=O)NC6=O)cc5F)CC4)CC3)cc2cc1C(=O)Nc1cccn([C@H]2C[C@H]2F)c1=O` (stereo partly drawn) [Example 155, 2-(1-((1-(5-(2,6-dioxopiperidin-3-yl)-3-fluoropyridin-2-yl)piperidin-4-yl)(methyl)carbamoyl)piperidin-4-yl)-N-(1-((1S,2R)-2-fluorocyclopropyl)-2-oxo-1,2-dihydropyridin-3-yl)-6-isopropoxy-2H-indazole-5-carboxamide] displayed a 50% degradation concentration (DC50) of 0.01 to 0.1 µM. Consider `CC(C)Oc1cc2nc([C@H]3CC[C@H](CN(C)C4CCN(c5cccc(NC6CCC(=O)NC6=O)c5)CC4)CC3)cn2cc1C(=O)Nc1cccc(C(F)F)n1` (stereo partly shown) [Example 24, N-[6-(difluoromethyl)-2-pyridyl]-2-[4-[[[1-[3-[(2,6-dioxo-3-piperidyl)amino]phenyl]-4-piperidyl]-methyl-amino]methyl]cyclohexyl]-7-isopropoxy-imidazo[1,2-a]pyridine-6-carboxamide], for which the DC50 lay within 0.01 to 0.1 µM. In the case of `CC(C)Oc1cc2nc([C@H]3CC[C@H](CN4CCN(c5ccc(C6CCC(=O)NC6=O)cn5)CC4)CC3)cn2cc1C(=O)Nc1cccn([C@H]2C[C@H]2F)c1=O` (stereo partly drawn) [Example 180, 2-((1r,4S)-4-((4-(5-(2,6-dioxopiperidin-3-yl)pyridin-2-yl)piperazin-1-yl)methyl)cyclohexyl)-N-(1-((1S,2R)-2-fluorocyclopropyl)-2-oxo-1,2-dihydropyridin-3-yl)-7-isopropoxyimidazo[1,2-a]pyridine-6-carboxamide] it was 0.01 to 0.1 µM; in that of `CC(C)Oc1cc2nc([C@H]3CC[C@H](CN4CCC(c5ccc6c(c5)n(C)c(=O)n6C5CCC(=O)NC5=O)CC4)CC3)cn2cc1C(=O)Nc1cccn(C2CC2)c1=O` (stereo partly shown) [Example 167, N-(1-cyclopropyl-2-oxo-1,2-dihydropyridin-3-yl)-2-((1r,4r)-4-((4-(1-(2,6-dioxopiperidin-3-yl)-3-methyl-2-oxo-2,3-dihydro-1H-benzo[d]imidazol-5-yl)piperidin-1-yl)methyl)cyclohexyl)-7-isopropoxyimidazo[1,2-a]pyridine-6-carboxamide], under 0.01 µM; in that of `CC(C)Oc1cc2nn(C3CCN(C(=O)CN4CCC(c5ccc(NC6CCC(=O)NC6=O)cc5F)CC4)CC3)cc2cc1C(=O)Nc1cccc(C(F)(F)F)n1` (stereo not shown) [Example 61, 2-[1-[2-[4-[4-[(2,6-dioxo-3-piperidyl)amino]-2-fluoro-phenyl]-1-piperidyl]acetyl]-4-piperidyl]-6-isopropoxy-N-[6-(trifluoromethyl)-2-pyridyl]indazole-5-carboxamide], 0.1 to 0.5 µM. In turn, `CC(C)Oc1cc2nc(C3CCN(C(=O)CC4(O)CCN(c5cc(Cl)c(NC6CCC(=O)NC6=O)cc5Cl)CC4)CC3)cn2cc1C(=O)Nc1cccc(C(F)F)n1` (stereo not shown) [Example 75, 2-[1-[2-[1-[2,5-dichloro-4-[(2,6-dioxo-3-piperidyl)amino]phenyl]-4-hydroxy-4-piperidyl]acetyl]-4-piperidyl]-N-[6-(difluoromethyl)-2-pyridyl]-7-isopropoxy-imidazo[1,2-a]pyridine-6-carboxamide] yielded a DC50 of 0.01 to 0.1 µM. In the case of `CC(C)Oc1cc2nc(C3CCN(CC(=O)N4CCC(c5ccc(NC6CCC(=O)NC6=O)cc5)CC4)CC3)cn2cc1C(=O)Nc1ccccc1` (stereo not shown) [Example 93, 2-[1-[2-[4-[4-[(2,6-dioxo-3-piperidyl)amino]phenyl]-1-piperidyl]-2-oxo-ethyl]-4-piperidyl]-7-isopropoxy-N-phenyl-imidazo[1,2-a]pyridine-6-carboxamide] it was 0.1 to 0.5 µM. Next, `CC(C)Oc1cc2nn(C3CCN(C(=O)CC4CCN(c5ncc(C6CCC(=O)NC6=O)cc5F)CC4)CC3)cc2cc1C(=O)Nc1cccn([C@H]2C[C@H]2F)c1=O` (stereo partly drawn) [Example 151, 2-(1-(2-(1-(5-(2,6-dioxopiperidin-3-yl)-3-fluoropyridin-2-yl)piperidin-4-yl)acetyl)piperidin-4-yl)-N-(1-((1S,2R)-2-fluorocyclopropyl)-2-oxo-1,2-dihydropyridin-3-yl)-6-isopropoxy-2H-indazole-5-carboxamide]: under 0.01 µM; `CC(C)Oc1cc2nc([C@H]3CC[C@H](CN4CCC(c5cccc(NC6CCC(=O)NC6=O)c5)CC4)CC3)cn2cc1C(=O)Nc1cccc(C(F)(F)F)n1` (stereo partly shown) [Example 12, 2-[4-[[4-[3-[(2,6-dioxo-3-piperidyl)amino]phenyl]-1-piperidyl]methyl]cyclohexyl]-7-isopropoxy-N-[6-(trifluoromethyl)-2-pyridyl]imidazo[1,2-a]pyridine-6-carboxamide]: 0.1 to 0.5 µM; `CC(C)Oc1cc2nn([C@H]3CC[C@H](CN4CCCCC4Cc4ccc(OC5CCC(=O)NC5=O)cc4)CC3)cc2cc1C(=O)Nc1cccn([C@H]2C[C@H]2F)c1=O` (stereo partly drawn) [Example 139, 2-((1r,4S)-4-((2-(4-((2,6-dioxopiperidin-3-yl)oxy)benzyl)piperidin-1-yl)methyl)cyclohexyl)-N-(1-((1S,2R)-2-fluorocyclopropyl)-2-oxo-1,2-dihydropyridin-3-yl)-6-isopropoxy-2H-indazole-5-carboxamide]: under 0.01 µM. In the case of `CC(C)Oc1cc2nc([C@H]3CC[C@H](CN4CC5(CCN(c6ncc(N7CCC(=O)NC7=O)cc6F)CC5)C4)CC3)cn2cc1C(=O)Nc1cccn(C2CC2)c1=O` [Example 190] it was 0.01 to 0.1 µM; in that of `CC(C)Oc1cc2nn([C@H]3CC[C@H](CN4CCCC(c5ccc(OC6CCC(=O)NC6=O)cc5)C4)CC3)cc2cc1C(=O)Nc1cccn(C2CC2)c1=O` (stereo partly shown) [Example 118, N-(1-cyclopropyl-2-oxo-1,2-dihydropyridin-3-yl)-2-((1r,4r)-4-((3-(4-((2,6-dioxopiperidin-3-yl)oxy)phenyl)piperidin-1-yl)methyl)cyclohexyl)-6-isopropoxy-2H-indazole-5-carboxamide], 0.01 to 0.1 µM; in that of `CC(C)Oc1cc2nc(C3CCN(CC(=O)N4CCC(c5ccc(C6CCC(=O)NC6=O)cc5)CC4)CC3)cn2cc1C(=O)Nc1cccc(C(F)F)n1` (stereo not shown) [Example 99, N-[6-(difluoromethyl)-2-pyridyl]-2-[1-[2-[4-[4-(2,6-dioxo-3-piperidyl)phenyl]-1-piperidyl]-2-oxo-ethyl]-4-piperidyl]-7-isopropoxy-imidazo[1,2-a]pyridine-6-carboxamide], 0.01 to 0.1 µM. Molecule `CC(C)Oc1cc2nc(C3CCN(C(=O)CC4(O)CCN(c5c(F)cc(N[C@H]6CCC(=O)NC6=O)cc5Cl)CC4)CC3)cn2cc1C(=O)Nc1cccc(C(F)F)n1` [Example 82, 2-[1-[2-[1-[2-chloro-4-[[(3S)-2,6-dioxo-3-piperidyl]amino]-6-fluoro-phenyl]-4-hydroxy-4-piperidyl]acetyl]-4-piperidyl]-N-[6-(difluoromethyl)-2-pyridyl]-7-isopropoxy-imidazo[1,2-a]pyridine-6-carboxamide] displayed a DC50 of 0.01 to 0.1 µM. Next, `CC(C)Oc1cc2nc(C3CCC(CN4CC[C@H](c5cc6c(cc5F)c(N5CCC(=O)NC5=O)nn6C)[C@H](O)C4)CC3)cn2cc1C(=O)Nc1cccn([C@H]2C[C@H]2F)c1=O` (stereo partly drawn) [Example 185, 2-((1S,4S)-4-(((3S,4R)-4-(3-(2,4-dioxotetrahydropyrimidin-1(2H)-yl)-5-fluoro-1-methyl-1H-indazol-6-yl)-3-hydroxypiperidin-1-yl)methyl)cyclohexyl)-N-(1-((1S,2R)-2-fluorocyclopropyl)-2-oxo-1,2-dihydropyridin-3-yl)-7-isopropoxyimidazo[1,2-a]pyridine-6-carboxamide]: under 0.01 µM.
